Measured values from ChEMBL document CHEMBL4765295, “Synthesis, pharmacological profile and 2D-QSAR studies of curcumin-amino acid conjugates as potential drug candidates” (Eur J Med Chem, 2020).
Values joined by “and” are separate entries in the source; they are usually repeats but may differ in a detail not shown here. Identical values can stand only once.

Key:
Rattus norvegicus [1] = assay: Anti-inflammatory activity in Wistar rat assessed as inhibition of carrageenan-induced paw edema at 10 mg/kg, ip pretreated for 1 hr followed by carrageenan challenge and measured after 2 hr relative to control (reference value: 0.00 +/-0.03 %); format: functional; details: time 3 hrs
Staphylococcus aureus = assay: Antibacterial activity against Staphylococcus aureus ATCC 25923 incubated for 18 hrs by agar dilution method; format: functional
Rattus norvegicus [2] = assay: Antiinflammatory activity in Wistar rat model of carrageenan-induced paw edema assessed as reduction in thickness of paw edema at 10 mg/kg, ip pretreated for 1 hr followed by carrageenan challenge and measured after 4 hrs (reference value: 1.40 +/-0.10 mm); format: functional; details: time 5 hrs
Streptococcus pyogenes = assay: Antibacterial activity against Streptococcus pyogenes ATCC 19615 incubated for 18 hrs by agar dilution method; format: functional
PC-3 = assay: Antiproliferative activity against human PC3 cells assessed as inhibition of cell growth after 72 hrs by MTT assay; format: functional, cell-based; details: PC-3, 72 h
Peritoneal macrophage [3] = assay: Antiinflammatory activity in […] mouse Peritoneal macrophages assessed as inhibition of LPS-induced NO production at 10 uM preincubated for 1 hr followed by LPS stimulation measured after 24 hrs by Griess method relative to control (reference value: 0.0 %); format: functional; set-up: scale not given: the % may be the effect or the level left; details: time 25 hrs
Pseudomonas aeruginosa = assay: Antibacterial activity against Pseudomonas aeruginosa ATCC 27853 incubated for 18 hrs by agar dilution assay; format: functional
Rattus norvegicus [4] = assay: Anti-inflammatory activity in Wistar rat assessed as inhibition of carrageenan-induced paw edema at 10 mg/kg, ip pretreated for 1 hr followed by carrageenan challenge and measured after 4 hr relative to control (reference value: 0.00 +/-0.4 %); format: functional; details: time 5 hrs
Rattus norvegicus [5] = assay: Anti-inflammatory activity in Wistar rat assessed as inhibition of carrageenan-induced paw edema at 10 mg/kg, ip pretreated for 1 hr followed by carrageenan challenge and measured after 1 hr relative to control (reference value: 0.00 +/-0.02 %); format: functional; details: time 2 hrs
A549 = assay: Antiproliferative activity against human A549 cells assessed as inhibition of cell growth after 72 hrs by MTT assay; format: functional, cell-based; details: A549, 72 h
MCF7 = assay: Antiproliferative activity against human MCF7 cells assessed as inhibition of cell growth after 72 hrs by MTT assay; format: functional, cell-based; details: MCF7, 72 h
Peritoneal macrophage [6] = assay: Antiinflammatory activity in […] mouse Peritoneal macrophages assessed as reduction in LPS-induced NO production by measuring reduction in stimulation index at 10 uM preincubated for 1 hr followed by LPS stimulation measured after 24 hrs by Griess method (reference value: 27.31 +/- 2.56 uM); format: functional; details: time 25 hrs
Candida albicans = assay: Antifungal activity against Candida albicans incubated for 18 to 24 hrs by CLSI method; format: functional; details: time 18-24 hrs
Rattus norvegicus [7] = assay: Anti-inflammatory activity in Wistar rat assessed as inhibition of carrageenan-induced paw edema at 10 mg/kg, ip pretreated for 1 hr followed by carrageenan challenge and measured after 3 hr relative to control (reference value: 0.00 +/-0.1 %); format: functional; details: time 4 hrs
Salmonella typhimurium = assay: Antibacterial activity against Salmonella typhimurium ATCC 19430 incubated for 18 hrs by agar dilution assay; format: functional, Salmonella enterica subsp. enterica serovar Typhimurium; details: Salmonella enterica
Splenocyte [8] = assay: Immunomodulatory activity in Swiss albino mouse splenocytes assessed as cell viability at 10 uM by measuring inhibition of stimulation index incubated for 72 hrs in presence of mitogenic stimulus phytohaemagglutinin by MTT assay relative to indomethacin; format: functional; details: read-out: Activity
Rattus norvegicus [9] = assay: Antiinflammatory activity in Wistar rat model of carrageenan-induced paw edema assessed as reduction in thickness of paw edema at 10 mg/kg, ip pretreated for 1 hr followed by carrageenan challenge and measured after 24 hrs (reference value: 0.83 +/-0.08 mm); format: functional; details: time 25 hrs
Rattus norvegicus [10] = assay: Antiinflammatory activity in Wistar rat model of carrageenan-induced paw edema assessed as reduction in thickness of paw edema at 10 mg/kg, ip pretreated for 1 hr followed by carrageenan challenge and measured after 3 hrs (reference value: 1.79 +/-0.07 mm); format: functional; details: time 4 hrs
Rattus norvegicus [11] = assay: Anti-inflammatory activity in Wistar rat assessed as inhibition of carrageenan-induced paw edema at 10 mg/kg, ip pretreated for 1 hr followed by carrageenan challenge and measured after 4 hr relative to indomethacin; format: functional; details: time 5 hrs
Rattus norvegicus [12] = assay: Anti-inflammatory activity in Wistar rat assessed as inhibition of carrageenan-induced paw edema at 10 mg/kg, ip pretreated for 1 hr followed by carrageenan challenge and measured after 24 hr relative to control (reference value: 0.00 +/-0.3 %); format: functional; details: time 25 hrs
Rattus norvegicus [13] = assay: Antiinflammatory activity in Wistar rat model of carrageenan-induced paw edema assessed as reduction in thickness of paw edema at 10 mg/kg, ip pretreated for 1 hr followed by carrageenan challenge and measured after 1 hr (reference value: 2.41 +/-0.05 mm); format: functional; details: time 1 hr after carrageenan
Rattus norvegicus [14] = assay: Antiinflammatory activity in Wistar rat model of carrageenan-induced paw edema assessed as reduction in thickness of paw edema at 10 mg/kg, ip pretreated for 1 hr followed by carrageenan challenge and measured after 2 hrs (reference value: 2.06 +/-0.09 mm); format: functional; details: time 3 hrs
Splenocyte [15] = assay: Immunomodulatory activity in Swiss albino mouse splenocytes assessed as cell viability at 10 uM by measuring stimulation index incubated for 72 hrs in presence of mitogenic stimulus phytohaemagglutinin by MTT assay (reference value: 1.00 +/- 0.24); format: functional

MIC (Staphylococcus aureus) | MIC (Streptococcus pyogenes) | IC50 (PC-3) [µM] | MIC (Pseudomonas aeruginosa) | IC50 (A549) [µM] | IC50 (MCF7) [µM] | MIC (Candida albicans) | MIC (Salmonella typhimurium) | Structure (SMILES) | inhibition in vivo at 10 mg/kg (Rattus norvegicus [1]) [%] | Activity (Rattus norvegicus [2]) [mm] | Activity (Peritoneal macrophage [3]) [%] | inhibition in vivo at 10 mg/kg (Rattus norvegicus [4]) [%] | inhibition in vivo at 10 mg/kg (Rattus norvegicus [5]) [%] | Activity (Peritoneal macrophage [6]) [µM] | inhibition in vivo at 10 mg/kg (Rattus norvegicus [7]) [%] | viability at 10 µM (Splenocyte [8]) [%] | Activity (Rattus norvegicus [9]) [mm] | Activity (Rattus norvegicus [10]) [mm] | inhibition in vivo at 10 mg/kg (Rattus norvegicus [11]) [%] | inhibition in vivo at 10 mg/kg (Rattus norvegicus [12]) [%] | other results
0.25 µg/mL and 0.34 µM | 0.5 µg/mL and 0.68 µM | 74.4 | 0.5 µg/mL and 0.68 µM | 33.5 | 11.5 | 0.5 µg/mL and 0.68 µM | 0.125 µg/mL and 0.17 µM | COc1cc(/C=C/C(=O)/C=C(O)/C=C/c2ccc(OC(=O)[C@@H](N)Cc3ccccc3)c(OC)c2)ccc1OC(=O)[C@@H](N)Cc1ccccc1.Cl.Cl | 51 | 0.22 | 39.74 | 84 | 46 | 16.46 | 63 | 85.6 | 0.66 | 0.66 | 97 | 20 | Activity (Rattus norvegicus [13]): 1.29 mm; Activity (Rattus norvegicus [14]): 1.01 mm; Activity_index (Splenocyte [15]): 1.41
0.25 µg/mL and 0.391 µM | 0.125 µg/mL and 0.195 µM | 34.6 | 0.25 µg/mL and 0.391 µM | 20.4 | 10.4 | 0.125 µg/mL and 0.195 µM | 0.125 µg/mL and 0.195 µM | COc1cc(/C=C/C(=O)/C=C(O)/C=C/c2ccc(OC(=O)[C@@H](N)C(C)C)c(OC)c2)ccc1OC(=O)[C@@H](N)C(C)C.Cl.Cl | 50 | 0.75 | 24.37 | 46 | 60 | 20.65 | 48 | 59 | 0.71 | 0.93 | 53 | 14 | Activity (Rattus norvegicus [13]): 0.97 mm; Activity (Rattus norvegicus [14]): 1.4 mm; Activity_index (Splenocyte [15]): 2.05
0.25 µg/mL and 0.374 µM | 0.5 µg/mL and 0.749 µM | 34.4 | 0.25 µg/mL and 0.374 µM | 20.9 | 10.2 | 0.125 µg/mL and 0.187 µM | 0.125 µg/mL and 0.187 µM | CC[C@H](C)[C@H](N)C(=O)Oc1ccc(/C=C/C(=O)/C=C(O)/C=C/c2ccc(OC(=O)[C@@H](N)[C@@H](C)CC)c(OC)c2)cc1OC.Cl.Cl | 36 | 0.34 | 35.45 | 76 | 33 | 17.63 | 47 | 76 | 0.58 | 0.94 | 87 | 30 | Activity (Rattus norvegicus [13]): 1.61 mm; Activity (Rattus norvegicus [14]): 1.31 mm; Activity_index (Splenocyte [15]): 1.59
